# Experiments:
# Type in all cases: cell-based
# human CCR2 = biological target: T1, human CCR2 (Homo sapiens, UniProt P41597); assay: Functional Ca2+ release test (B-1); conditions: Chem-1 cell line transfected with human CCR2, inhibition of MCP-1 effect, MCP-1 at EC50 (about 5 nM), Fluo-4
# T1 construct: host or cells: Chem-1 cell line
# T1 sequence (P41597 1-360 isoform P41597-2): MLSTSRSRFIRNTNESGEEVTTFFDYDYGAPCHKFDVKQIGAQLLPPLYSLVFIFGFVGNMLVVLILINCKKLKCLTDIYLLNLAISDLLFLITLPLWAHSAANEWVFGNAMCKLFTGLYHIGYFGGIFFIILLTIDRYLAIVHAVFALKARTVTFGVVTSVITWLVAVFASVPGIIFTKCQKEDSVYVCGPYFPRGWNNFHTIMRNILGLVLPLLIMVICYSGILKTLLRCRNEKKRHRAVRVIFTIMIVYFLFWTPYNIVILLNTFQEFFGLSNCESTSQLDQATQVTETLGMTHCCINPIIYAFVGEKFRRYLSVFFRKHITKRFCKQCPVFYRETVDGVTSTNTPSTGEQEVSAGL
# Procedure: The antagonistic action of test substances on CCR2 was determined in a functional Ca^2+ release test. Binding of CCL2/MCP-1 to CCR2 leads to a change in the conformation of the receptor resulting in Gi/Gq protein activation and intracellular signal cascade. This involves, inter alia, an intracellular Ca^2+ release. The test cell used was a Chem-1 cell line transfected with human CCR2 (ChemiSCREEN™ CCR2B Calcium-Optimized FLIPR Cell Line, Merck Millipore).
# (§1) The test substances were dissolved in dimethyl sulphoxide (DMSO) at a concentration of 10 mM and serially diluted with DMSO in steps of 1:3.16 for a 10-point dose/activity analysis. According to the desired test concentrations, the substances were pre-diluted in Tyrode with 2 mM CaCl2 and 0.05% BSA.
# The cells, cultivated in DMEM high glucose [supplemented with 10% FCS, 1 mM pyruvate, 15 mM HEPES, 500 μg/ml geniticin and non-essential amino acids (NEAA)], were sown at 5000 cells/25 μl in 384 well, μCLEAR/black cell culture plates from Greiner (#781092) and incubated at 37° C. for 24 h. The sowing medium consisted of DMEM high glucose [supplemented with 5% FCS, 1 mM pyruvate, 15 mM HEPES, 50 U/ml penicillin, 50 μg/ml streptomycin and non-essential amino acids (NEAA)]. The medium was then removed and the cells were charged for 60 min at 37° C. with Fluo-4 dye [25 μl Tyrode with 3 μM Fluo-4 AM (1 mM DMSO stock solution), 0.4 mg/ml Brilliant Black, 2.5 mM probenicid, 0.03% Pluronic F-127]. The cells were pre-incubated for 10 min with 10 μl of the test substances diluted in buffer, and 20 μl of agonist solution (MCP-1 in Tyrode with 0.05% BSA) were then added. MCP-1 was employed at the concentration which corresponds to the EC50 which had been determined in a preliminary test (usually about 5 nM). Ca^2+ release was monitored over a period of 120 s in 1 s increments in a proprietary fluorescence imaging reader. The molar concentration of the test substance which caused 50% inhibition of the MCP-1 effect (IC50) was determined using a 4-parameter logistic function (Hill function).
# murine CCR2 [1] = biological target: T2, murine CCR2 (Mus musculus, UniProt P51683); assay: Functional β-arrestin recruiting test with human MCP-1 (B-2a); conditions: U2OS β-arrestin cell line transfected with murine CCR2; agonist human MCP-1 at EC50 (about 3 nM)
# T2 construct: host or cells: U2OS β-arrestin cell line
# T2 sequence (P51683 whole entry): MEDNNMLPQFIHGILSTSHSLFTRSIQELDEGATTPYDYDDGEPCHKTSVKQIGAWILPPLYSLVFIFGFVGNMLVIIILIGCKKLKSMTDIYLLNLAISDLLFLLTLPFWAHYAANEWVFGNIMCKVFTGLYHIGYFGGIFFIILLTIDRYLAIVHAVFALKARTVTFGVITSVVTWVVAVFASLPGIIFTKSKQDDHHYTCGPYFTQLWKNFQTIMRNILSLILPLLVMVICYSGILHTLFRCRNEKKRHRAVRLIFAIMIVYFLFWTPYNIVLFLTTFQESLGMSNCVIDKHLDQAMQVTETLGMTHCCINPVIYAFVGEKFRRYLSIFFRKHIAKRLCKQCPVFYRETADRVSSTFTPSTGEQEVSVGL
# Procedure: (§2) The antagonistic action of test substances on CCR2 was determined in a β-arrestin test. The PathHunter β-arrestin GPCR test system (DiscoveRx Corporation, Ltd.) is a cell-based functional method for detecting binding of β-arrestin to an activated receptor. The molecular basis is a β-galactosidase complementation measured by the enzymatic conversion of a chemiluminescent substrate. The test cell used was a U2OS β-arrestin cell line transfected with murine CCR2 (93-0543C3, DiscoveRx Corporation, Ltd.).
# as §1
# (§3) The cells, cultivated in MEM Eagle (supplemented with 10% FCS, 50 U/ml of penicillin, 50 μg/ml of streptomycin, 250 μg/ml of hygromycin and 500 μg/ml of geniticin), were sown at 2000 cells/25 μl in 384 well, μCLEAR/black cell culture plates from Greiner (#781092) and incubated at 37° C. for 24 h. The sowing medium consisted of Opti-MEM (supplemented with 1% FCS, 50 U/ml of penicillin and 50 μg/ml of streptomycin). The cells were pre-incubated for 10 min with 10 μl of the test substances diluted in buffer, and 10 μl of agonist solution [human MCP-1 (PeproTech, #300-04) in Tyrode with 0.05% BSA] were then added. The human MCP-1 was employed at the concentration which corresponds to the EC50 which had been determined in a preliminary test (usually about 3 nM). After 90 min of incubation at 37° C., the solution was removed, and recruitment of β-arrestin to CCR2 was detected with the aid of the PathHunter detection reagent (93-001, DiscoveRx Corporation, Ltd.) according to the instructions of the manufacturer. Luminescence was measured after an incubation time of 60 min using a proprietary luminescence imaging measuring instrument. The molar concentration of the test substance which caused 50% inhibition of the MCP-1 effect (IC50) was determined using a 4-parameter logistic function (Hill function).
# murine CCR2 [2] = biological target: T2, murine CCR2; assay: Functional β-arrestin recruiting test with murine MCP-1 (B-2b); conditions: U2OS β-arrestin cell line transfected with murine CCR2; agonist murine MCP-1
# Procedure: as §2, §1, §3
# The test was carried out in a manner identical to that described above under B-2a, but using murine MCP-1 (PeproTech, #250-10) as agonist.
Structure (SMILES),IC50 (human CCR2),IC50 (murine CCR2 [1]),IC50 (murine CCR2 [2])
"Nc1nc(C(F)(F)F)c(Oc2ccc(Cl)c(C(F)(F)F)c2)c(=O)[nH]1 [Example 2, 2-Amino-5-[4-chloro-3-(trifluoromethyl)phenoxy]-6-(trifluoromethyl)pyrimidin-4(3H)-one]",3.3 nM,23 nM,69 nM
"Nc1nc(C(F)(F)F)c(Oc2ccc(Cl)c(Cl)c2)c(=O)[nH]1 [Example 3, 2-Amino-5-(3,4-dichlorophenoxy)-6-(trifluoromethyl)pyrimidin-4(3H)-one]",3.4 nM,49 nM,280 nM
"Nc1nc(C(F)(F)F)c(Cc2ccc(Cl)c(Cl)c2)c(=O)[nH]1 [Example 1, 2-Amino-5-(3,4-dichlorobenzyl)-6-(trifluoromethyl)pyrimidin-4(3H)-one]",19 nM,200 nM,312 nM
Nc1nc(C(F)(F)F)c(Oc2ccc(Cl)c(OC(F)(F)F)c2)c(=O)[nH]1 [Example 57],1.8 nM,,2270 nM
CC(c1ccc(Cl)c(Cl)c1)c1c(C(F)(F)F)nc(N)[nH]c1=O (centres unmarked) [Example 70],45 nM,,3710 nM
Nc1nc(C(F)(F)F)c(Oc2ccc(C(F)(F)F)cc2)c(=O)[nH]1 [Example 74],50 nM,,4160 nM
CC(C)Nc1nc(C(F)(F)F)c(Oc2ccc(Cl)c(Cl)c2)c(=O)[nH]1 [Example 65],121 nM,,1630 nM
CNc1nc(C(F)(F)F)c(Oc2ccc(Cl)c(Cl)c2)c(=O)[nH]1 [Example 66],9.8 nM,,506 nM
Nc1nc(C(F)(F)F)c(Oc2cccc(C(F)(F)F)c2)c(=O)[nH]1 [Example 75],21 nM,,9490 nM
Nc1nc(C(F)(F)F)c(S(=O)(=O)c2ccc(Cl)c(C(F)(F)F)c2)c(=O)[nH]1 [Example 61],110 nM,,2950 nM
Cc1ccc(Oc2c(C(F)(F)F)nc(N)[nH]c2=O)cc1Cl [Example 71],2.4 nM,,1720 nM
Nc1nc(C(F)(F)F)c([S+]([O-])c2ccc(Cl)c(Cl)c2)c(=O)[nH]1 (centres unmarked) [Example 62],542 nM,,1340 nM
Nc1nc(C(F)(F)F)c(S(=O)(=O)c2ccc(Cl)c(Cl)c2)c(=O)[nH]1 [Example 63],326 nM,,2200 nM
